Patent publication US12648924B2, “Prevention and treatment of effects of aging and age-associated disorders with ketone supplementation” (priority 2020, dated 2026)

Test system: VM-M3 cells
Test: KDE in VM-M3 model of cancer anorexia cachexia syndrome (Experiment 4c)
Type: in vivo, VM/Dk mice
Conditions: 30% KDE in diet
Source text: Animals: Five breeding pairs of the VM/Dk strain of mice were used to establish and propagate a VM/Dk mouse colony in the University of South Florida (USF) Morsani College of Medicine Vivarium according to standard husbandry protocol. Male and female VM/Dk mice between 10-23 weeks of age were singly housed to accurately assess individual animal food intake. Bodyweight and food intake were tracked daily prior to and post-social isolation to ensure bodyweight and food intake normalized prior to cell inoculation (Table 1). Animals were distributed into one of four groups: Sham Male (SH-M), Sham Female (SH-F), Cancer Male (CA-M), and Cancer Female (CA-F). Each cancer animal was matched with a sham animal of equivalent sex, bodyweight, age, and food intake (FIGS. 8A-8B) to ensure appropriate cancer and sex-specific comparisons. To determine KDE-induced effects in CACS, VM/Dk animals were distributed into one of three groups: KDE+VM-M3, VM-M3, and Sham with equivalent sex, bodyweight, age and food intake at baseline (FIG. 13A). One premature death occurred in SH-F (Experiment 1a) and Sham (Experiment 4c) groups immediately post-inoculation. To determine KDE-induced effects post-LPS administration, VM/Dk animals were distributed into two groups (FIGS. 14A-14B): KDE+LPS and LPS of equivalent bodyweights. All procedures were approved by the USF Institutional Animal Care and Use Committee (USF IACUC; Protocol Number R1900 & R5829) and performed under strict adherence to the NIH Guide for the Care and Use of Laboratory Animals.
VM-M3 Cell and Lipopolysaccharide Implantation: For VM-M3 implantation in the model characterization experiments (FIG. 1-5; FIG. 8-12), ˜1×10^6 VM-M3 cells (T. Seyfried, Boston College) in 300 μL sterile PBS (CA-M and CA-F) or 300 μL sterile PBS-only (SH-M and SH-F) were injected subcutaneously into the left abdominal flank resulting in primary tumor formation at the injection site, and subsequently systemically metastasizes to most major organs, namely the liver, kidneys, spleen, lungs, and brain. […] This method of implantation further minimized variability in markers of tumor progression, and therefore provides a useful optional method technique in the VM-M3 model for efficient analysis of potential therapeutic agents. To determine KDE-induced effects on CACS, 1×10^6 VM-M3 cells in 300 μL sterile PBS (KDE+VM-M3 and VM-M3) or 300 μL sterile PBS-only (Sham) were administered intraperitoneally (FIG. 6; FIG. 13). For LPS administration in the septic atrophy model, LPS (Escherichia coli 055:B5; L2880; Sigma-Aldrich, St. Louis, MO) was diluted in sterile PBS and administered intraperitoneally at 10 mg/kg as pilot work indicated a maximal, yet non-fatal, ˜15% bodyweight reduction at 10 mg/kg dose.
Tumor Growth and Metastasis: Tumor growth was monitored weekly as a measure of bioluminescence using the Xenogen IVIS Spectrum system (Caliper LS, Hopkinton, MA). Data acquisition and analysis was performed using the Living Image@ software (Caliper LS). Approximately 15 minutes prior to in vivo imaging, VM/Dk mice received an intraperitoneal injection of D-Luciferin (50 mg/kg; 88293, Thermo Fisher Scientific; Waltham, MA). Bioluminescent signal was obtained using the IVIS Lumina cooled CCD camera system in both prone and supine positions. As only the cancer cells were transfected with the luciferase gene, bioluminescent signal (photons/sec) of the whole animal was measured and tracked over time as an indicator of tumor burden and metastatic spread. At EOL, primary tumor, spleen, liver, and adipose tissue were gathered and saturated with D-Luciferin (10 μL D-Luciferin+PBS/g tissue at 5 mg D-Luciferin/mL PBS dilution) for 5 mins and imaged to determine tumor burden. Ascites fluid was imaged 15 minutes after resuspension with D-Luciferin (20 μL D-Luciferin+PBS/mL ascites fluid at 5 mg D-Luciferin/mL PBS dilution) to assess presence of circulating tumor cells. […]

[1] = weekly, KDE+VM-M3 vs VM-M3 and Sham

For CC(=O)CC(=O)OCCC(C)OC(=O)CC(C)=O (stereo not shown) [KDE, R/S 1,3-butanediol acetoacetate diester], the blood lactate (KDE+VM-M3 vs VM-M3) was “No difference”, the “food intake (anorexic phenotype)” value (KDE+VM-M3 vs VM-M3) was “attenuation of the predicted anorexic phenotype” and the bodyweight (daily, KDE+VM-M3 vs VM-M3 and Sham) was “lower bodyweight”. The ascites fluid weight (week 3, KDE+VM-M3 group (VM-M3 alone 3.0 g, Sham 0 g)) was 1.9 g, the “ascites fluid (surrogate marker of metastatic spread)” value (week 3, KDE+VM-M3 vs VM-M3) was “significantly reduced” and the “intraperitoneal adipose tissue weight (adipose tissue catabolism)” value (week 3, KDE+VM-M3 vs VM-M3) was “unable to alter adipose tissue catabolism”. For the same compound, the “serum IGF-1” value (week 3, KDE+VM-M3 vs VM-M3) was “did not alter circulating anabolic hormone levels”, the serum insulin (week 3, KDE+VM-M3 vs VM-M3) was “did not alter circulating anabolic hormone levels” and the “skeletal muscle atrophy (Gastrocnemius, Soleus, Quadricep, Tibialis Anterior, Hind Limb weights)” value (week 3, KDE+VM-M3 vs VM-M3) was “did attenuate muscle atrophy”. For the same compound, the “cardiac tissue weight set to baseline bodyweight” value (week 3, across groups) was “unaltered”, the “whole animal tumor burden (in vivo bioluminescence)” value (weekly imaging, KDE+VM-M3 vs VM-M3) was “non-significant reductions” and the blood glucose [1] was “reductions in blood glucose”. For the same compound, the circulating ketones [1] was “sustained elevations”.
